Structures can show the parent of a compound that is named as a salt.
How the values were obtained:
[1] = system: learning ability of mice in a shuttle chamber; assay: Learning ability of mice in a shuttle chamber; assay type: in vivo, mouse; conditions: mice
[2] = system: learning ability of rats in a shuttle chamber; assay: Active avoidance learning in a shuttle chamber, rats; assay type: in vivo, rat; conditions: rats, hypodermally 2 mg/kg
From the text: (§1) In these experiments rats are taught to avoid an electric shock by escaping into a next chamber communicating with the first chamber by means of a special opening--a door. An electric current is applied to the chamber door consisting of metal plates. A conditional irritator is a light signal together with a sound click. The learning series consisted of 50 combinations. The number of combinations necessary for the animal's learning to escape into another chamber in response to the conditional signal was determined. Five correct responses out of 6 where regarded as the proof of stability of the acquired knowledge and were denoted as a "learning criterion". After 7 days the educational procedure was repeated, and again the number of combinations necessary to acquire the "learning criterion" was determined. In the case of difference between the first and second readings the percentage of retention of the acquired knowledge was calculated.
(§2) In this experiment the effect of the preparation according to the present invention and prior art preparations was separately evaluated for the purpose of comparison on well-learning and on specially selected poorly learning rats. […] To the poorly learning rats the animals were assigned which reached no "learning criterion" in the teaching series of 50 combinations, or, in other words, a stable knowledge of active avoidance was not worked out in them. […] The preparation according to the present invention and the prior art comparison preparations were administered before the first teaching series or thereafter.
(§3) Also studied were the effects produced upon a single and repeated administration of the preparation according to the present invention for 14 days.

[3] = system: learning ability of rats preliminarily sorted out for poor learning ability; assay: Active avoidance learning in a shuttle chamber, rats sorted out for poor learning ability; assay type: in vivo, rat; conditions: poorly learning rats, hypodermally 2 mg/kg
From the text: as §1, §2, §3

[4] = system: cerebral cortex of rabbits; assay: Asymmetry factor by induced potential in the hearing zone of the cerebral cortex; assay type: in vivo, rabbit
Experimental: (§4) In the third series of experiments the effect of the preparation according to the present invention on the functional brain asymmetry was studied. The experiments were carried out on rabbits with electrodes implanted in the brain. The electrodes under nembutal narcosis (40 mg/kg) were implanted strictly symmetrically into the bearing zone of the temporal cortex of the right and left hemispheres on its lateral surface, whereas the indifferent electrode was secured to the nasal bones of a rabbit's skull. The acoustic irritation was applied through earphones. As the acoustic irritation a sound click caused by a square-shaped pulse from an electronic stimulator with a frequency of 0.1-0.2 Hz was used; the click intensity was adjusted within the range of from 5 to 80 Db. The amplification of the taken-off biopotentials was effected on an electroencephalograph; the induced potentials were obtained by means of an analyzer. 100 experiments on 20 animals were thus conducted; the interval between experiments on one animal was 7 days. The amplitude and form of the induced potential were determined. The asymmetry factor (Kas) was calculated by the formula: [formula] Ar --amplitude of the induced potential of the […] hemisphere, μV;
(§5) A1 --amplitude of the induced potential of the left hemisphere.
(§6) The test preparations were administered hypodermally in the form of 0.5-1.5% aqueous solutions 20 minutes before the beginning of the measurements.

[5] = system: rabbit's brain hemispheres; assay: Amplitude of induced potential in brain hemispheres (acoustic irritation); assay type: in vivo; conditions: rabbits
Experimental: as §4, §5, §6

[6] = hypodermally 1 mg/kg, 12 day (retention)
[7] = hypodermally 3 mg/kg, 12 day (retention)
[8] = hypodermally 30 mg/kg, 12 day (retention)
[9] = hypodermally 100 mg/kg, 1st day
[10] = hypodermally 100 mg/kg, 12 day (retention)
[11] = hypodermally 300 mg/kg, 1st day
[12] = hypodermally 300 mg/kg, 12 day (retention)
[13] = per os 300 mg/kg, 12 day (retention)

Nc1ccncc1 [4-aminopyridine]
retention of the knowledge of active avoidance (in words) [1]: does not affect the retention of the knowledge of active avoidance
teaching (in words) [1]: facilitates teaching
% of avoidance reactions, group I ([1]; hypodermally 1 mg/kg, 1st day): 17%
% of avoidance reactions, group II ([1]; hypodermally 1 mg/kg, 1st day): 21%
% of avoidance reactions, group III ([1]; hypodermally 1 mg/kg, 1st day): 38%
% of avoidance reactions, group IV ([1]; hypodermally 1 mg/kg, 1st day): 51%
% of avoidance reactions, group V ([1]; hypodermally 1 mg/kg, 1st day): 55%
% of avoidance reactions, group VI ([1]; hypodermally 1 mg/kg, 1st day): 60%
% of avoidance reactions, group I [1, 6]: 48%
% of avoidance reactions, group II [1, 6]: 70%
% of avoidance reactions, group III [1, 6]: 72%
% of avoidance reactions, group IV [1, 6]: 71%
% of avoidance reactions, group V [1, 6]: 70%
% of avoidance reactions, group VI [1, 6]: 75%
% of avoidance reactions, group I ([1]; hypodermally 3 mg/kg, 1st day): 20%
% of avoidance reactions, group II ([1]; hypodermally 3 mg/kg, 1st day): 30%
% of avoidance reactions, group III ([1]; hypodermally 3 mg/kg, 1st day): 54%
% of avoidance reactions, group IV ([1]; hypodermally 3 mg/kg, 1st day): 61%
% of avoidance reactions, group V ([1]; hypodermally 3 mg/kg, 1st day): 79%
% of avoidance reactions, group VI ([1]; hypodermally 3 mg/kg, 1st day): 82%
% of avoidance reactions, group I [1, 7]: 46%
% of avoidance reactions, group II [1, 7]: 73%
% of avoidance reactions, group III [1, 7]: 74%
% of avoidance reactions, group IV [1, 7]: 74%
% of avoidance reactions, group V [1, 7]: 80%
% of avoidance reactions, group VI [1, 7]: 80%
Number of combinations to reach the "learning criterion" in II teaching series (after 7 days) [2]: 7.4 ± 1.2
Number of combinations to reach the "learning criterion" in the I teaching series [2]: 17.8 ± 1.2
Number of non-taught animals in the group [2]: 0/20
Percentage knowledge retention [2]: 60%
% of knowledge retention [3]: 40.9%
Number of combinations till appearance of "learning criterion", I teaching [3]: 32.5 ± 2.8
Number of combinations till appearance of "learning criterion", II-checking of retention of knowledge [3]: 19.2 ± 1.7
Number of untaught animals in the group [3]: 11/20
asymmetry factor (in words) [4]: did not change or reduced the factor of asymmetry
Asymmetry factor, Preparation ([4]; hypodermally 2 mg/kg, control 0.26 ± 0.06): 0.12 ± 0.02
amplitude of induced potentials (in words) [5]: increased amplitude of the induced potential
Change of amplitude of induced potential, % of the control, left hemisphere ([5]; hypodermally 2 mg/kg): 140%
Change of amplitude of induced potential, % of the control, right hemisphere ([5]; hypodermally 2 mg/kg): 175%
Mean value of amplitude of induced potential, % ([5]; hypodermally 2 mg/kg): 160%

CC(C)(CO)[C@@H](O)C(=O)NCCCC(=O)O [Calcium homopantothenate, calcium salt of homopantothenic acid]
learning (in words) ([1]; 100 mg/kg): improving effect on learning only in a high dose
effect of hypodermal vs per os administration (in words) ([1]; hypodermal vs per os): substantially more pronounced effect than its per os administration
% of avoidance reactions, group I ([1]; hypodermally 30 mg/kg, 1st day): 21%
% of avoidance reactions, group II ([1]; hypodermally 30 mg/kg, 1st day): 23%
% of avoidance reactions, group III ([1]; hypodermally 30 mg/kg, 1st day): 40%
% of avoidance reactions, group IV ([1]; hypodermally 30 mg/kg, 1st day): 55%
% of avoidance reactions, group V ([1]; hypodermally 30 mg/kg, 1st day): 58%
% of avoidance reactions, group VI ([1]; hypodermally 30 mg/kg, 1st day): 60%
% of avoidance reactions, group I [1, 8]: 55%
% of avoidance reactions, group II [1, 8]: 80%
% of avoidance reactions, group III [1, 8]: 82%
% of avoidance reactions, group IV [1, 8]: 85%
% of avoidance reactions, group V [1, 8]: 84%
% of avoidance reactions, group VI [1, 8]: 88%
% of avoidance reactions, group I [1, 9]: 20%
% of avoidance reactions, group II [1, 9]: 31%
% of avoidance reactions, group III [1, 9]: 40%
% of avoidance reactions, group IV [1, 9]: 55%
% of avoidance reactions, group V [1, 9]: 58%
% of avoidance reactions, group VI [1, 9]: 60%
% of avoidance reactions, group I [1, 10]: 60%
% of avoidance reactions, group II [1, 10]: 90%
% of avoidance reactions, group III [1, 10]: 90%
% of avoidance reactions, group IV [1, 10]: 89%
% of avoidance reactions, group V [1, 10]: 90%
% of avoidance reactions, group VI [1, 10]: 88%
% of avoidance reactions, group I [1, 11]: 21%
% of avoidance reactions, group II [1, 11]: 32%
% of avoidance reactions, group III [1, 11]: 40%
% of avoidance reactions, group IV [1, 11]: 50%
% of avoidance reactions, group V [1, 11]: 51%
% of avoidance reactions, group VI [1, 11]: 55%
% of avoidance reactions, group I [1, 12]: 53%
% of avoidance reactions, group II [1, 12]: 75%
% of avoidance reactions, group III [1, 12]: 76%
% of avoidance reactions, group IV [1, 12]: 76%
% of avoidance reactions, group V [1, 12]: 74%
% of avoidance reactions, group VI [1, 12]: 74%
% of avoidance reactions, group I ([1]; per os 300 mg/kg, 1st day): 21%
% of avoidance reactions, group II ([1]; per os 300 mg/kg, 1st day): 22%
% of avoidance reactions, group III ([1]; per os 300 mg/kg, 1st day): 32%
% of avoidance reactions, group IV ([1]; per os 300 mg/kg, 1st day): 42%
% of avoidance reactions, group V ([1]; per os 300 mg/kg, 1st day): 43%
% of avoidance reactions, group VI ([1]; per os 300 mg/kg, 1st day): 51%
% of avoidance reactions, group I [1, 13]: 50%
% of avoidance reactions, group II [1, 13]: 72%
% of avoidance reactions, group III [1, 13]: 73%
% of avoidance reactions, group IV [1, 13]: 78%
% of avoidance reactions, group V [1, 13]: 77%
% of avoidance reactions, group VI [1, 13]: 80%
